Measurements taken from US8063051B2, “9-substituted-8-oxo-adenine compounds as toll-like receptor (TLR7) modulators” (AstraZeneca AB, priority 2007, dated 2011).

Molecular target: T1, Recombinant human TLR7 (Homo sapiens, UniProt Q9NYK1)
T1 construct: expressed in transfected cells; host or cells: HEK293 cell line stably expressing the pNiFty2-SEAP reporter plasmid; TLR7 in vector pUNO, blasticidin selection
T1 sequence (Q9NYK1 27-1049): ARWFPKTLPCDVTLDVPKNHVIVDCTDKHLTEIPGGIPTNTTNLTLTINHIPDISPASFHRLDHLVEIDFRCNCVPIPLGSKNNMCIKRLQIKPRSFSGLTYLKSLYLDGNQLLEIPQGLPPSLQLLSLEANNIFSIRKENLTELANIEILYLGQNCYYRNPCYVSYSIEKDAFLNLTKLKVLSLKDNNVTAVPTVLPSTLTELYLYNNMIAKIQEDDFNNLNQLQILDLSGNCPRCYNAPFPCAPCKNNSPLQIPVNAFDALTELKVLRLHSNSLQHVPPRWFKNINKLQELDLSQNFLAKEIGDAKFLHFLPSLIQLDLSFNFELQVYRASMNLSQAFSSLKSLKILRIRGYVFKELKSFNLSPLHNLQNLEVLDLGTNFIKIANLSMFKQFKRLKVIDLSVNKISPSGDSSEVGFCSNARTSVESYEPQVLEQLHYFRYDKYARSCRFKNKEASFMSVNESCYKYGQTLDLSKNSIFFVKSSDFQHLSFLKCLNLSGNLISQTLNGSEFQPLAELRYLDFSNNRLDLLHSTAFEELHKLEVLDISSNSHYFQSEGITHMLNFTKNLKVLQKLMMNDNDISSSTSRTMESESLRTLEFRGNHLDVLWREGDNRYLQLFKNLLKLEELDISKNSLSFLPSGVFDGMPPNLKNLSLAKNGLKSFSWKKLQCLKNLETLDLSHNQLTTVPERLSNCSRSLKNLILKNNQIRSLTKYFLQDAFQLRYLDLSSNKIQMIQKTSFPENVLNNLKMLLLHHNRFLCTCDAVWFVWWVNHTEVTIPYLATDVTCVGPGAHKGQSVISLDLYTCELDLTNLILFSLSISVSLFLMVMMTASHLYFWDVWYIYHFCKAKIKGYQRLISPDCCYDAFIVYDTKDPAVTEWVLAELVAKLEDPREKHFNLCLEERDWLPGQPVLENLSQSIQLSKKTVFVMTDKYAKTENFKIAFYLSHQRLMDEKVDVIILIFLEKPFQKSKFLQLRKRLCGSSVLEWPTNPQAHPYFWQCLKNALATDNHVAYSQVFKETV
Experiment: Human TLR7 assay (SEAP reporter in HEK293 cells)
Type: cell-based
Conditions: HEK293 cell line stably expressing human TLR7 and pNiFty2-SEAP reporter; SEAP induction after overnight incubation at 37° C., 0.1% (v/v) DMSO
Source text: Recombinant human TLR7 was stably expressed in a HEK293 cell line already stably expressing the pNiFty2-SEAP reporter plasmid; integration of the reporter gene was maintained by selection with the antibiotic zeocin. The most common variant sequence of human TLR7 (represented by the EMBL sequence AF240467) was cloned into the mammalian cell expression vector pUNO and transfected into this reporter cell-line. Transfectants with stable expression were selected using the antibiotic blasticidin. In this reporter cell-line, expression of secreted alkaline phosphatase (SEAP) is controlled by an NFkB/ELAM-1 composite promoter comprising five NFkB sites combined with the proximal ELAM-1 promoter. TLR signaling leads to the translocation of NFkB and activation of the promoter results in expression of the SEAP gene. TLR7-specific activation was assessed by determining the level of SEAP produced following overnight incubation of the cells at 37° C. with the standard compound in the presence of 0.1% (v/v) dimethylsulfoxide (DMSO). Concentration dependent induction of SEAP production by compounds was expressed as the concentration of compound which produced half of the maximal level of SEAP induction for that compound (pEC50).

Compound	EC50
CCCCOc1nc(N)c2[nH]c(=O)n(CCCN(Cc3ccccc3)C(=O)COC)c2n1 [Example 2, N-[3-(6-Amino-2-butoxy-8-oxo-7,8-dihydro-9H-purin-9-yl)propyl]-N-benzyl-2-methoxyacetamide]	50.1 nM
CCCCOc1nc(N)c2[nH]c(=O)n(CCCN(Cc3ccccc3)C(=O)Cc3ccc(S(C)(=O)=O)cc3)c2n1 [Example 6, N-[3-(6-Amino-2-butoxy-8-oxo-7,8-dihydro-9H-purin-9-yl)propyl]-N-benzyl-2-[4-(methylsulfonyl)phenyl]acetamide]	79.4 nM
CCCCOc1nc(N)c2[nH]c(=O)n(CCCN(Cc3ccccc3)C(=O)Cn3nc(C)nc3C)c2n1 [Example 8, N-[3-(6-Amino-2-butoxy-8-oxo-7,8-dihydro-9H-purin-9-yl)propyl]-N-benzyl-2-(3,5-dimethyl-1H-1,2,4-triazol-1-yl)acetamide]	158 nM
CCCCOc1nc(N)c2[nH]c(=O)n(CCCN(Cc3ccccc3)C(=O)CCc3cnccn3)c2n1 [Example 9, N-[3-(6-Amino-2-butoxy-8-oxo-7,8-dihydro-9H-purin-9-yl)propyl]-N-benzyl-3-pyrazin-2-ylpropanamide]	50.1 nM
CCCCOc1nc(N)c2[nH]c(=O)n(CCCN(Cc3ccccc3)C(C)=O)c2n1 [Example 1, N-[3-(6-Amino-2-butoxy-8-oxo-7,8-dihydro-9H-purin-9-yl)propyl]-N-benzylacetamide]	63.1 nM
CCCCOc1nc(N)c2[nH]c(=O)n(CCCN(Cc3ccccc3)C(=O)CN3CCN(Cc4ccccc4)CC3)c2n1 [Example 7, N-[3-(6-Amino-2-butoxy-8-oxo-7,8-dihydro-9H-purin-9-yl)propyl]-N-benzyl-2-(4-benzylpiperazin-1-yl)acetamide]	7.94 nM
CCCCOc1nc(N)c2[nH]c(=O)n(CCCN(Cc3ccccc3)C(=O)CCN(C)C)c2n1 [Example 10, N-[3-(6-Amino-2-butoxy-8-oxo-7,8-dihydro-9H-purin-9-yl)propyl]-N-benzyl-N^3,N^3-dimethyl-β-alaninamide]	31.6 nM
CCCCOc1nc(N)c2[nH]c(=O)n(CCCN(Cc3ccccc3)C(=O)CCOC)c2n1 [Example 4, N-[3-(6-Amino-2-butoxy-8-oxo-7,8-dihydro-9H-purin-9-yl)propyl]-N-benzyl-3-methoxypropanamide]	79.4 nM
CCCCOc1nc(N)c2[nH]c(=O)n(CCCN(Cc3ccccc3)C(=O)CCC(=O)OC)c2n1 [Example 3, Methyl 4-[[3-(6-amino-2-butoxy-8-oxo-7,8-dihydro-9H-purin-9-yl)propyl](benzyl)amino]-4-oxobutanoate]	39.8 nM
CCCCOc1nc(N)c2[nH]c(=O)n(CCCN(Cc3ccccc3)C(=O)CCC(=O)N(C)C)c2n1 [Example 5, N-[3-(6-Amino-2-butoxy-8-oxo-7,8-dihydro-9H-purin-9-yl)propyl]-N-benzyl-N′,N′-dimethylsuccinamide]	79.4 nM
